Experimental data: patent US20090214580A1, “Peptide mixtures with immunomodulatory activity” (priority 2004, published 2009)

Legend:
[1] = system: EAE; conditions: Lewis rats; cited from earlier work
[2] = system: SJL mouse spleen cells; test: SJL mouse spleen primary proliferative responses to CM; type: cell-based; conditions: naive SJL spleen cells; 40, 10, 2.5 μg/ml; words
Experimental: FIG. 3: SJL mouse spleen primary proliferative responses to CM. Mouse splenic cells were seeded with 3 different doses of CM (40, 10 and 2.5 μg/ml) or GA to test for stimulatory potential of CM of (A) varying length or (B) differential anchor bias. 18 wells were seeded per antigen, and data from 2 experiments were pooled. % positive wells represents the proportion of wells with CPM at a SI greater than 2 compared to background/control wells.
(§1) 6-8 week old female SJL/J mice were purchased from Charles River Laboratories (Wilmington, Mass.). Spleen cells were isolated from anesthetized naïve SJL mice or 10 days after immunization with 200 μg of CM or GA in Complete Freund's Adjuvant (CFA—Difco Laboratories, Detroit, Mich.) on four spots on their back and subsequent aseptic spleen removal and red blood cell lysis using ACK lysis buffer from Biosource (Camarillo, Calif.). […] After six or three days in naïve or immunized mouse experiments respectively, 1 μCi ^3[H]-thymidine (Dupont, Wilmington, Del.) was added overnight and subsequently harvested and counted for thymidine incorporation on a Trilux liquid scintillation counter (Wallac, Gaithersburg, Md.).

[3] = system: PLP139-151-induced EAE; test: Prophylaxis in PLP139-151-induced EAE; type: in vivo, SJL mice
[4] = system: whole human MBP; test: Spleen cells of CM- or GA-immunized SJL mice, cross reactivity to human MBP; type: cell-based, mouse; conditions: spleen cells ten days after immunization; words
From the text: (§2) FIG. 4. Cross reactivity of CM-specific lines to MBP. SJL mice were immunized with CM or GA to enhance the number of CM-specific T cells to assess for cross-reactivity to MBP. Spleen cells were removed from mice ten days post immunization and set into culture (6 wells per condition) with the initial immunizing antigen or human MBP at the μg/ml concentrations shown on the X axes. *p<0.05 by Student's t test comparing proliferation in test wells to control wells without antigen.
as §1

[5] = target: HLA-DR2 (Homo sapiens, UniProt P01903+P01911); conditions: cited from earlier work
[6] = system: spleen cells from immunized SJL mice; test: Spleen cells of CM- or GA-immunized SJL mice, response to immunizing antigen; type: cell-based, mouse; conditions: spleen cells ten days after immunization; words
From the text: as §2, §1

[7] = system: PBMC from healthy donors and MS patients; test: T cell proliferation of PBMC, primary and secondary (3H-thymidine); type: cell-based, human; conditions: 20 μg/ml; healthy donor and MS patient PBMC; words
Experimental: FIG. 1: Peptide length and composition affect the stimulatory potential of complex mixtures (CM). The stimulatory capacity of CM ranging in size and composition were tested in PBMC from nine healthy donors in both primary (A,C) and secondary (B,D) proliferations to confirm the specificity of the response. 20 μg/ml of CM or GA were each added to 18 wells and the % of positive wells (those wells with CPM having an SI greater than twice that observed in background/control wells) determined from pooled data from all donors. Figures A and B analyze the contribution of peptide length and Figures C and D the composition or MHC-bias to stimulatory potential. […]
PBMC were isolated from leukocytaphereses and seeded in complete T cell medium (TCM; Iscove's modified Dulbecco's medium [IMDM] containing 2 mM 1-glutamine, 50 μg/ml gentamycin, penicillin-streptomycin 100 U/ml each, and 5% pooled human AB serum) at 2×10^5 cells/well into 96 well U-bottom microtiter plates (Nunc, Naperville, Ill.) and stimulated with CM and GA at 20 μg/ml. After 6 days, 100 μl samples of cell suspension were removed from these plates and transferred to a new microtiter plate to which 1 μCi/well of H^3-thymdidine (Amersham Pharmacia Biotech, Piscataway, N.J.) was added and after 16 hours harvested and counted in a scintillation counter (Microbeta, Wallac, Gatihersburg, Md.). […]

[8] = system: multiple sclerosis; conditions: MS patients; cited from earlier work

Substance: EYYKEYYKEYYK
- effect on EAE [1]: ameliorate EAE

Substance: Glatiramer acetate [GA]
- stimulatory potential (primary proliferative responses) [2]: most frequently observed
- Cumulative disease score (day 0-24) ([3]; 500 μg co-injected s.c. with 75 μg PLP 139-151, initial disease course, mean ± SEM): 10.2 ± 1.6
- Cumulative disease score (day 24-45) ([3]; 500 μg co-injected s.c. with 75 μg PLP 139-151, remaining disease course, mean ± SEM): 13.5 ± 3.0
- prophylactic effect on the EAE disease course ([3]; single 500 μg dose with PLP 139-151): significantly reduce the overall disease score
- reduction of cumulative disease score throughout the relapse phase ([3]; single 500 μg dose with PLP 139-151, vs PLP alone): approximately one-third
- cross reactivity with whole human MBP [4]: cross reacted
- competition for binding of MBP (85-99) to HLA-DR2 [5]: effectively compete
- response to immunizing antigen (SI) [6]: very high SIs
- stimulatory potential (proliferative responses, % positive wells) [7]: most frequently observed
- reduction of the relapse rate in MS [8]: about 30%

Substance: poly-YEAK
- binding to DR2 molecules ([5]; compared with poly-YEA, -YEK and -YAK): better binders
